The supplement of paper PMC10307832

Experiments:
Assay in all cases: relative viability (nuclei count vs DMSO), 5 days (fraction); higher = more cells survive
Tozasertib + Foretinib = compound: Cc1cc(Nc2cc(N3CCN(C)CC3)nc(Sc3ccc(NC(=O)C4CC4)cc3)n2)n[nH]1 [Tozasertib] + COc1cc2c(Oc3ccc(NC(=O)C4(C(=O)Nc5ccc(F)cc5)CC4)cc3F)ccnc2cc1OCCCN1CCOCC1 [Foretinib] (partner 0.25 µM)
In short: (§1)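 Values are medians from duplicate plates. Each reflects relative viability, defined as the nuclei count of treated wells over that of vehicle wells. Lung cancer cell lines in 1536-well plates were pin-tool dosed one day after seeding with one drug alone or with a fixed anchor-drug dose plus five library-drug doses (not always all listed) in √10 steps, then fixed, stained and imaged at 4× after 5 days.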

Tozasertib + Lapatinib = compound: Cc1cc(Nc2cc(N3CCN(C)CC3)nc(Sc3ccc(NC(=O)C4CC4)cc3)n2)n[nH]1 [Tozasertib] + CS(=O)(=O)CCNCc1ccc(-c2ccc3ncnc(Nc4ccc(OCc5cccc(F)c5)c(Cl)c4)c3c2)o1 [Lapatinib] (partner 2 µM)
In short: as §1

Tozasertib + Dasatinib = compound: Cc1cc(Nc2cc(N3CCN(C)CC3)nc(Sc3ccc(NC(=O)C4CC4)cc3)n2)n[nH]1 [Tozasertib] + Cc1nc(Nc2ncc(C(=O)Nc3c(C)cccc3Cl)s2)cc(N2CCN(CCO)CC2)n1 [Dasatinib] (partner 0.075 µM)
In short: as §1

Tozasertib + Vorinostat = compound: Cc1cc(Nc2cc(N3CCN(C)CC3)nc(Sc3ccc(NC(=O)C4CC4)cc3)n2)n[nH]1 [Tozasertib] + O=C(CCCCCCC(=O)Nc1ccccc1)NO [Vorinostat] (partner 1 µM)
In short: as §1

Tozasertib + Olaparib = compound: Cc1cc(Nc2cc(N3CCN(C)CC3)nc(Sc3ccc(NC(=O)C4CC4)cc3)n2)n[nH]1 [Tozasertib] + O=C(c1cc(Cc2n[nH]c(=O)c3ccccc23)ccc1F)N1CCN(C(=O)C2CC2)CC1 [Olaparib] (partner 8 µM)
In short: as §1

| Cell Line | relative viability (Tozasertib + Foretinib; first compound 0.004 µM) | relative viability (Tozasertib + Foretinib; first compound 0.01265 µM) | relative viability (Tozasertib + Foretinib; first compound 0.04 µM) | relative viability (Tozasertib + Foretinib; first compound 0.1265 µM) | relative viability (Tozasertib + Lapatinib; first compound 0.004 µM) | relative viability (Tozasertib + Lapatinib; first compound 0.01265 µM) | relative viability (Tozasertib + Lapatinib; first compound 0.04 µM) | relative viability (Tozasertib + Lapatinib; first compound 0.1265 µM) | relative viability (Tozasertib + Dasatinib; first compound 0.004 µM) | relative viability (Tozasertib + Dasatinib; first compound 0.01265 µM) | relative viability (Tozasertib + Dasatinib; first compound 0.04 µM) | relative viability (Tozasertib + Dasatinib; first compound 0.1265 µM) | relative viability (Tozasertib + Vorinostat; first compound 0.004 µM) | relative viability (Tozasertib + Vorinostat; first compound 0.01265 µM) | relative viability (Tozasertib + Vorinostat; first compound 0.04 µM) | relative viability (Tozasertib + Vorinostat; first compound 0.1265 µM) | relative viability (Tozasertib + Olaparib; first compound 0.004 µM) | relative viability (Tozasertib + Olaparib; first compound 0.01265 µM) | relative viability (Tozasertib + Olaparib; first compound 0.04 µM) | relative viability (Tozasertib + Olaparib; first compound 0.1265 µM) |
| --- | --- | --- | --- | --- | --- | --- | --- | --- | --- | --- | --- | --- | --- | --- | --- | --- | --- | --- | --- | --- |
| 201T | 1.09 | 1.04 | 1.28 | 1.09 | 1 | 0.981 | 1.05 | 0.884 | 0.593 | 0.503 | 0.714 | 0.555 | 0.939 | 0.902 | 0.968 | 0.946 | 0.846 | 0.838 | 0.849 | 0.814 |
| A549 | – | 0.823 | 0.871 | 0.251 | 1.04 | 0.859 | 0.835 | 0.0927 | – | – | – | – | – | – | – | – | 0.2 | 0.324 | 0.313 | 0.13 |
| A-427 | 1.03 | 0.935 | 1 | 0.594 | 1.09 | – | 1.04 | 0.824 | 0.774 | 0.692 | 0.76 | 0.426 | 0.858 | 0.817 | 0.804 | 0.489 | 0.769 | 0.645 | 0.734 | 0.47 |
| ABC-1 | 0.988 | 1.27 | 0.838 | 0.381 | 1.26 | 1.04 | 1.13 | 1.24 | 0.494 | 0.535 | 0.577 | 0.258 | 1.35 | 1 | 0.767 | 0.306 | 0.832 | 0.704 | 0.394 | 0.613 |
| BEN | 1.02 | 0.463 | 0.678 | 0.493 | 0.73 | 0.886 | 0.696 | 0.577 | 0.372 | 0.354 | 0.363 | 0.287 | 0.551 | – | 0.59 | 0.398 | – | 1.09 | 0.931 | 0.956 |
| CAL-12T | 1.19 | 1.04 | 1.11 | 1.11 | 0.651 | 0.596 | 0.626 | 0.414 | 0.434 | 0.332 | 0.404 | 0.151 | 0.694 | 0.677 | 0.751 | 0.305 | – | 0.741 | 0.769 | 0.55 |
| COR-L23 | 0.998 | 0.847 | 0.783 | 0.523 | 1.02 | 0.863 | 0.721 | 0.247 | 0.521 | 0.547 | 0.479 | 0.245 | 0.522 | 0.403 | 0.393 | 0.198 | 0.375 | 0.378 | 0.3 | 0.299 |
| COR-L 105 | 1.03 | 0.993 | 1 | 0.803 | 0.358 | 0.365 | 0.335 | 0.262 | 0.352 | 0.291 | 0.32 | 0.214 | 0.998 | – | 0.936 | 0.512 | 0.681 | 0.725 | 0.716 | 0.754 |
| ChaGo-K-1 | 0.939 | 0.874 | 0.813 | 0.249 | – | – | – | – | 0.624 | 0.616 | 0.648 | 0.398 | 0.75 | 0.683 | 0.714 | 0.265 | 0.4 | 0.386 | 0.407 | 0.372 |
| EKVX | 0.74 | 0.76 | 0.838 | 0.786 | 0.189 | 0.167 | 0.227 | 0.185 | 0.494 | 0.606 | 0.471 | – | 0.665 | 0.543 | 0.637 | 0.613 | 0.93 | 0.773 | 0.798 | 0.688 |
| EMC-BAC-2 | 1.1 | 0.935 | 1.02 | 0.642 | 0.851 | – | 0.908 | 0.567 | 0.314 | 0.321 | 0.342 | 0.259 | 0.438 | 0.233 | 0.242 | 0.15 | 0.511 | 0.437 | 0.414 | 0.366 |
| EPLC-272H | 0.643 | 0.595 | 0.604 | 0.496 | 0.958 | – | 0.891 | – | 0.313 | 0.399 | 0.39 | 0.291 | 0.521 | – | 0.318 | 0.287 | 0.729 | – | – | 0.341 |
| H3255 | 1.43 | 0.698 | 0.868 | 0.706 | 0.256 | 0.229 | 0.236 | 0.228 | 0.37 | 0.409 | 0.339 | 0.304 | 0.86 | 0.676 | – | 0.712 | 0.554 | 0.564 | 0.602 | 0.503 |
| HARA | – | 0.824 | 1.03 | 0.145 | – | 0.695 | 1.02 | 0.246 | 0.286 | 0.281 | 0.336 | 0.303 | 0.674 | 0.427 | 0.507 | 0.419 | 0.821 | 1.2 | 0.983 | 0.349 |
| HCC-15 | 1.1 | 0.99 | 1.1 | 0.764 | 0.992 | 0.852 | 0.92 | 0.751 | 0.61 | 0.532 | 0.624 | 0.319 | 0.86 | 0.735 | 0.923 | – | 0.715 | – | 0.688 | 0.597 |
| HCC-44 | – | – | – | – | 1.06 | 1.02 | 1.06 | 0.862 | – | – | – | – | 1.09 | 1 | 1.04 | 0.901 | 0.961 | 0.924 | 1.02 | 0.914 |
| HCC-78 | 0.678 | 0.708 | 0.587 | 0.466 | 0.985 | 0.58 | – | 0.643 | 0.541 | 0.316 | 0.469 | 0.322 | 0.445 | 0.386 | 0.45 | 0.373 | 0.885 | 0.705 | 0.98 | 0.758 |
| HCC-366 | – | 0.912 | 0.63 | 0.0962 | 1.1 | 0.992 | – | 0.0536 | 0.612 | 0.682 | 0.677 | 0.629 | 0.371 | 0.3 | 0.198 | 0.0431 | 0.333 | 0.333 | 0.312 | 0.127 |
| HCC-827 | 0.996 | 1.03 | 1.13 | 0.758 | 0.222 | 0.18 | 0.215 | 0.192 | 0.299 | 0.282 | 0.352 | 0.345 | 0.87 | 0.835 | 0.89 | 0.584 | 0.684 | 0.577 | 0.723 | 0.624 |
| HOP-62 | 0.953 | 1.07 | 1.06 | 0.915 | 1.06 | 0.999 | 0.856 | 0.943 | 0.676 | 0.615 | 0.672 | 0.668 | 0.621 | 0.483 | 0.628 | 0.462 | 0.699 | 0.436 | 0.458 | 0.288 |
| LC-2-ad | 0.812 | – | 1.04 | 0.609 | 1.01 | 0.884 | 0.97 | 0.509 | 0.624 | 0.565 | 0.482 | 0.236 | 0.762 | 0.631 | 0.613 | 0.272 | 0.732 | 0.677 | 0.602 | 0.608 |
| LCLC-97TM1 | 1.03 | 0.895 | 0.95 | 0.695 | – | 0.884 | 1.04 | 0.592 | 0.809 | 0.695 | 0.948 | 0.783 | 0.69 | 0.639 | 0.644 | 0.153 | 0.53 | 0.381 | 0.335 | 0.231 |
| LCLC-103H | 0.81 | 0.78 | 0.713 | 0.416 | – | – | – | – | 0.539 | 0.452 | 0.456 | 0.478 | 0.842 | 0.863 | 0.743 | 0.544 | 0.782 | 0.811 | 0.772 | 0.734 |
| LK-2 | 1.51 | 0.927 | 1.34 | 0.267 | 1.01 | 0.869 | 1.01 | 0.219 | 0.262 | 0.39 | 0.285 | 0.23 | 0.287 | 0.321 | 0.28 | 0.197 | 0.753 | 0.715 | 0.77 | 0.326 |
| LOU-NH91 | – | 0.923 | 1.02 | 0.918 | 0.789 | 0.742 | 0.803 | 0.638 | – | 0.519 | 0.573 | 0.499 | 0.761 | 0.889 | 0.983 | 0.707 | 0.781 | 0.916 | 0.937 | 0.922 |
| LU99A | 0.798 | 0.629 | 0.796 | 0.487 | 1.07 | 0.749 | 0.742 | 0.467 | 0.751 | 0.513 | 0.547 | 0.373 | 0.544 | 0.423 | 0.428 | 0.339 | 0.251 | 0.212 | 0.26 | 0.251 |
| NCI-H441 | 1.05 | 0.914 | 0.895 | 0.887 | – | – | – | – | 0.655 | 0.643 | – | 0.474 | 0.852 | 0.823 | 0.845 | 0.766 | 0.625 | 0.425 | 0.49 | 0.459 |
| NCI-H1563 | 0.892 | 0.919 | 0.918 | 0.92 | 0.922 | 0.967 | 0.875 | – | 0.567 | 0.481 | 0.541 | 0.453 | – | – | – | – | – | – | – | – |
| NCI-H1792 | – | – | – | – | 0.913 | 0.742 | 0.943 | 0.737 | 0.7 | 0.594 | 0.888 | 0.694 | – | – | – | – | 0.456 | 0.435 | 0.707 | 0.314 |
| NCI-H2342 | 0.949 | 0.997 | 1.02 | 0.908 | – | – | – | – | 0.338 | 0.293 | 0.314 | 0.292 | 0.77 | 0.78 | 0.782 | 0.597 | 0.43 | 0.44 | 0.471 | 0.443 |
